In patent publication US20240263159A1, “GENE EDITING IN PRIMARY IMMUNE CELLS USING CELL PENETRATING CRISPR-CAS SYSTEM” (THE TRUSTEES OF THE UNIVERSITY OF PENNSYLVANIA, priority 2021, published 2024):

Columns and labels:
CD45.2 = test: in vitro editing in mouse primary CD8 T cells, CD45.2 knockdown by flow cytometry; format: cell-based; details: CD45.2 sgRNA_1, 5 μM TAT-4×Myc NLS-Cas9, 75 μM dTAT-HA2, Day 4
Method: FIG. 3C: An example of flow plots showing the percentage of sgRNA+Cas9+ for Rosa and CD45.2.
FIG. 3D: Target genes are knocked down during Days 1-5 in vitro culture as measured by flow cytometry.
RN2-Cas9 cells were infected with retrovirus expressing sgRNA and mCherry, and CD45.2 expression level was measured by flow cytometry after 3 days of infection. Both sgRNAs targeting CD45.2 efficiently knocked down CD45.2 compared to sgRNAs targeting Rosa26 (FIG. 3A). It was next tested whether TAT-4×Myc Cas9 can edit the genome in mouse primary CD8 T cells. Briefly, on Day −2, primary CD8 T cells were isolated from 3-month-old mouse spleen and activated by CD3, […], and IL-2 for 24 hours. On Day −1, the activated cells were infected with retrovirus expressing sgRNA and mCherry for 24 hours. Cells were then treated with 5 μM TAT-4×Myc NLS-Cas9 (with GFP tag) and 75 μM dTAT-HA2, and incubated in RPMI 1640 supplied with 1% FBS and 50 μM 2-mercaptoethanol in a 37° C. incubator for 40 min. […] CD45.2 expression level was measured by flow cytometry from Day 1 to Day 5. […] The stability of TAT-4×Myc NLS-Cas9 was evaluated in the cells by measuring normalized Mean Fluorescence Intensity (MFI) of GFP.

[1] = test system: EL4 mCherry reporter cell line; test: EL4 mCherry reporter gene editing, loss of mCherry by flow cytometry; details: 5 μM TAT-4×Myc NLS-Cas9, 75 μM dTAT-HA2, 30 min, no FBS
CD90.2 = test: in vitro editing in mouse primary CD8 T cells, CD90.2 knockdown by flow cytometry; format: cell-based
8.7 kb DNA fragment = test: in vitro DNA cleavage assay; format: biochemical; details: Cas9 RNP with sgRNA, 37° C.
Method: Cas9 RNPs were assembled by incubating purified spCas9 or TAT-4×Myc NLS-Cas9 with sgRNA targeting a 8.7 kb DNA fragment, and incubated with the DNA fragment for 1, 5, 10, and 15 min at 37° C. The reaction was stopped and the DNA products were separated on a 0.8% agarose gel. Uncut band (˜8.7 kb) and two cleaved bands (˜2.7 kb and 6 kb) are shown on the gel.
TAT-4×Myc NLS-Cas9 expression construct was created by replacing the 4×SV40 NLS (PKKKRKV (SEQ ID NO: 1423)) at the N-terminus of Cas9 (Staahl et al., (2017) Nat Biotechnol 35, 431-434) with 4×Myc NLS ([…] (SEQ ID NO: 1)) with linker -G-G-S- between Myc NLS. The sequence of the TAT cell penetrating peptide ([…] (SEQ ID NO: 2)), derived from the trans-activating transcriptional activator (Tat) from HIV-1 (Frankel and Pabo, 1988; Green and Loewenstein, 1988), was added to the N-terminus, and TAT-4×Myc NLS-Cas9 was cloned into a bacterial recombinant protein expression vector (Gootenberg et al., 2017) with a Twin-Strep and SUMO tag (FIG. 1A). Next, TAT-4×Myc NLS-Cas9 protein was purified by Strep-Tactin affinity chromatography followed by on-column SUMO protease digestion, ion exchange chromatography (IEC), and size exclusion chromatography (SEC) (FIG. 1B) (Gootenberg et al., (2017) Science 356, 438-442).

PD-1 = details: mouse, in vivo
Thy1 and Ptprc genes = test: Cas9-PAGE with retroviral sgRNA in murine primary CD8 T cells ex vivo (flow cytometry, TIDE assay); format: cell-based; details: sgThy1_IG1 or sgNeg, various concentrations of TH, 5 μM Cas9-T6N^CPP, 30 min
Method: FIG. 12A: A schematic of the experimental workflow of evaluating the PAGE system in murine primary CD8 T cells ex vivo. Murine primary T cells were activated with anti-CD3, anti-CD28 and IL-2, followed by retroviral transduction with a sgRNA expression vector linked with mCherry fluorescent marker. […] Gene editing was evaluated at various time points by flow cytometry against indicated gene products or via direct sanger sequencing of the targeted genomic regions. […] Cells were transduced with either sgThy1_IG1 or sgNeg, followed by 30 min incubation with various concentrations of TH and 5 μM Cas9-T6N^CPP. Flow cytometry analysis was performed at the indicated days post-treatment. […] FIG. 12C: Mean Fluorescent Intensity (MFI) quantification of the flow cytometry analysis at 4 days post-treatment in FIG. 12B (left panel). […] FIG. 12E: Quantification of live cell recovery of CD8 T cells treated with an increased concentration of TH. […] Genomic DNA was isolated at day 6 post-treatment of PAGE, sanger sequenced, and followed by quantification via an online TIDE analysis tool. sgThy1_IG1, sgThy1_IG2, sgThy1_IG3, sgRNAs targeting the Immunoglobulin domain of Thy1 gene; sgPtprc_CAT1 and sgPtprc_TM1, sgRNAs targeting either the catalytic domain or transmembrane domain of Ptprc gene; sgNeg, an sgRNA targeting Ano9 gene was used as a negative control here. […]

Substance | percentage of CD45.2 knockdown cells, maximum (CD45.2) | percentage of mCherry^− cells [1] | percentage of CD90.2 knockdown cells, maximum (CD90.2; CD90.2 sgRNA_2, 5 μM TAT-4×Myc NLS-Cas9, 75 μM dTAT-HA2, Day 3) | percentage of CD90.2 knockdown cells, maximum (CD90.2; CD90.2 sgRNA_3, 5 μM TAT-4×Myc NLS-Cas9, 75 μM dTAT-HA2, Day 3) | DNA cleavage (8.7 kb DNA fragment) | PD-1 expression (PD-1) | percentage of sgRNA^+P14 T cell population and total number of sgRNA^+P14 T cells (PD-1) | Cas9-T6N^CPP gene editing in murine primary CD8 T cells (Thy1 and Ptprc genes)
TAT-4×NLS^MYC-Cas9-2×NLS^SV40-sfGFP [TAT-4×Myc NLS-Cas9] | ~60% | 92.9% | ~90% | ~70% | efficiently cleaved DNA | ~20% | increased | 
dTAT-HA2 [TH] |  |  |  |  |  |  |  | promoted Cas9-T6N^CPP gene editing
